# Reference: the supplement of paper PMC10307832
# Legend:
# Test in all cases: relative viability (nuclei count vs DMSO), 5 days (fraction); higher = more cells survive
# NCI-H650 = test system: NCI-H650
# Method in brief: (§1)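 Nuclei were stained with Hoechst during a one-step fixation (final 0.05% Triton X-100, 1% formaldehyde, 1 ug/ml Hoechst) carried out 5 days after dosing, then counted on 4× images. The cells, lung cancer lines in 1536-well plates, had been dosed by pin tool the day after seeding with one drug alone or a fixed anchor-drug dose plus five library-drug doses (not always all listed) in √10 steps. Relative viability is the nuclei count in treated wells divided by that in vehicle wells, and each value is the median of duplicate plates.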
# NCI-H838 = test system: NCI-H838
# Method in brief: as §1
# ChaGo-K-1 = test system: ChaGo-K-1
# Method in brief: as §1
# NCI-H1975 = test system: NCI-H1975
# Method in brief: as §1
# PC-3 [JPC-3] = test system: PC-3 [JPC-3]
# Method in brief: as §1
# NCI-H1355 = test system: NCI-H1355
# Method in brief: as §1
# HCC-78 = test system: HCC-78
# Method in brief: as §1
# NCI-H358 = test system: NCI-H358
# Method in brief: as §1
# BEN = test system: BEN
# Method in brief: as §1
# LK-2 = test system: LK-2
# Method in brief: as §1
# NCI-H1944 = test system: NCI-H1944
# Method in brief: as §1
# LC-2-ad = test system: LC-2-ad
# Method in brief: as §1
# NCI-H596 = test system: NCI-H596
# Method in brief: as §1
# SK-MES-1 = test system: SK-MES-1
# Method in brief: as §1
# NCI-H661 = test system: NCI-H661
# Method in brief: as §1
# NCI-H1666 = test system: NCI-H1666
# Method in brief: as §1
# LXF-289 = test system: LXF-289
# Method in brief: as §1
# LU99A = test system: LU99A
# Method in brief: as §1
# NCI-H1651 = test system: NCI-H1651
# Method in brief: as §1
# NCI-H2087 = test system: NCI-H2087
# Method in brief: as §1
# LCLC-97TM1 = test system: LCLC-97TM1
# Method in brief: as §1
structure (smiles),measurement,setting,value
Cc1sc2c(c1C)C(c1ccc(Cl)cc1)=N[C@@H](CC(=O)OC(C)(C)C)c1nnc(C)n1-2 [JQ1] + C[C@@H](Oc1cc(-c2cnn(C3CCNCC3)c2)cnc1N)c1c(Cl)ccc(F)c1Cl [Crizotinib] (partner 1 µM),relative viability,NCI-H650; first compound 0.04 µM,0.7
same,relative viability,NCI-H650; first compound 0.1265 µM,0.445
same,relative viability,NCI-H650; first compound 0.4 µM,0.343
same,relative viability,NCI-H650; first compound 1.265 µM,0.174
same,relative viability,NCI-H650; first compound 4 µM,0.195
same,relative viability,NCI-H838; first compound 0.04 µM,0.814
same,relative viability,NCI-H838; first compound 0.1265 µM,0.546
same,relative viability,NCI-H838; first compound 0.4 µM,0.415
same,relative viability,NCI-H838; first compound 1.265 µM,0.27
same,relative viability,NCI-H838; first compound 4 µM,0.172
same,relative viability,ChaGo-K-1; first compound 0.04 µM,1.04
same,relative viability,ChaGo-K-1; first compound 0.4 µM,0.689
same,relative viability,ChaGo-K-1; first compound 1.265 µM,0.513
same,relative viability,ChaGo-K-1; first compound 4 µM,0.387
same,relative viability,NCI-H1975; first compound 0.04 µM,0.891
same,relative viability,NCI-H1975; first compound 0.1265 µM,0.675
same,relative viability,NCI-H1975; first compound 0.4 µM,0.483
same,relative viability,NCI-H1975; first compound 1.265 µM,0.3
same,relative viability,NCI-H1975; first compound 4 µM,0.235
same,relative viability,PC-3 [JPC-3]; first compound 0.04 µM,1.06
same,relative viability,PC-3 [JPC-3]; first compound 0.1265 µM,1.03
same,relative viability,PC-3 [JPC-3]; first compound 0.4 µM,0.96
same,relative viability,PC-3 [JPC-3]; first compound 1.265 µM,0.851
same,relative viability,PC-3 [JPC-3]; first compound 4 µM,0.512
same,relative viability,NCI-H1355; first compound 0.04 µM,1.01
same,relative viability,NCI-H1355; first compound 0.1265 µM,0.963
same,relative viability,NCI-H1355; first compound 0.4 µM,0.768
same,relative viability,NCI-H1355; first compound 1.265 µM,0.559
same,relative viability,NCI-H1355; first compound 4 µM,0.614
same,relative viability,HCC-78; first compound 0.04 µM,0.314
same,relative viability,HCC-78; first compound 0.1265 µM,0.33
same,relative viability,HCC-78; first compound 0.4 µM,0.348
same,relative viability,HCC-78; first compound 1.265 µM,0.275
same,relative viability,HCC-78; first compound 4 µM,0.251
same,relative viability,NCI-H358; first compound 0.04 µM,0.498
same,relative viability,NCI-H358; first compound 0.1265 µM,0.43
same,relative viability,NCI-H358; first compound 0.4 µM,0.473
same,relative viability,NCI-H358; first compound 1.265 µM,0.228
same,relative viability,NCI-H358; first compound 4 µM,0.25
same,relative viability,BEN; first compound 0.04 µM,0.67
same,relative viability,BEN; first compound 0.1265 µM,0.84
same,relative viability,BEN; first compound 0.4 µM,0.51
same,relative viability,BEN; first compound 1.265 µM,0.335
same,relative viability,BEN; first compound 4 µM,0.229
same,relative viability,LK-2; first compound 0.04 µM,0.208
same,relative viability,LK-2; first compound 0.1265 µM,0.224
same,relative viability,LK-2; first compound 0.4 µM,0.212
same,relative viability,LK-2; first compound 1.265 µM,0.232
same,relative viability,LK-2; first compound 4 µM,0.198
same,relative viability,NCI-H1944; first compound 0.04 µM,1.02
same,relative viability,NCI-H1944; first compound 0.1265 µM,0.905
same,relative viability,NCI-H1944; first compound 0.4 µM,0.719
same,relative viability,NCI-H1944; first compound 1.265 µM,0.574
same,relative viability,NCI-H1944; first compound 4 µM,0.447
same,relative viability,LC-2-ad; first compound 0.04 µM,0.44
same,relative viability,LC-2-ad; first compound 0.1265 µM,0.348
same,relative viability,LC-2-ad; first compound 0.4 µM,0.308
same,relative viability,LC-2-ad; first compound 1.265 µM,0.277
same,relative viability,LC-2-ad; first compound 4 µM,0.258
same,relative viability,NCI-H596; first compound 0.04 µM,0.977
same,relative viability,NCI-H596; first compound 0.1265 µM,0.85
same,relative viability,NCI-H596; first compound 0.4 µM,0.472
same,relative viability,NCI-H596; first compound 1.265 µM,0.498
same,relative viability,NCI-H596; first compound 4 µM,0.432
same,relative viability,SK-MES-1; first compound 0.04 µM,0.873
same,relative viability,SK-MES-1; first compound 0.1265 µM,0.77
same,relative viability,SK-MES-1; first compound 0.4 µM,0.672
same,relative viability,SK-MES-1; first compound 1.265 µM,0.467
same,relative viability,SK-MES-1; first compound 4 µM,0.295
same,relative viability,NCI-H661; first compound 0.04 µM,1
same,relative viability,NCI-H661; first compound 0.1265 µM,1.08
same,relative viability,NCI-H661; first compound 1.265 µM,1.05
same,relative viability,NCI-H661; first compound 4 µM,0.776
same,relative viability,NCI-H1666; first compound 0.04 µM,0.771
same,relative viability,NCI-H1666; first compound 0.1265 µM,0.841
same,relative viability,NCI-H1666; first compound 0.4 µM,0.669
same,relative viability,NCI-H1666; first compound 1.265 µM,0.451
same,relative viability,NCI-H1666; first compound 4 µM,0.481
same,relative viability,LXF-289; first compound 0.04 µM,0.84
same,relative viability,LXF-289; first compound 0.1265 µM,0.746
same,relative viability,LXF-289; first compound 0.4 µM,0.743
same,relative viability,LXF-289; first compound 1.265 µM,0.677
same,relative viability,LXF-289; first compound 4 µM,0.479
same,relative viability,LU99A; first compound 0.04 µM,0.554
same,relative viability,LU99A; first compound 0.1265 µM,0.533
same,relative viability,LU99A; first compound 0.4 µM,0.278
same,relative viability,LU99A; first compound 1.265 µM,0.231
same,relative viability,LU99A; first compound 4 µM,0.198
same,relative viability,NCI-H1651; first compound 0.04 µM,0.795
same,relative viability,NCI-H1651; first compound 0.1265 µM,0.784
same,relative viability,NCI-H1651; first compound 0.4 µM,0.701
same,relative viability,NCI-H1651; first compound 1.265 µM,0.639
same,relative viability,NCI-H1651; first compound 4 µM,0.548
same,relative viability,NCI-H2087; first compound 0.04 µM,0.901
same,relative viability,NCI-H2087; first compound 0.4 µM,0.862
same,relative viability,NCI-H2087; first compound 1.265 µM,0.602
same,relative viability,NCI-H2087; first compound 4 µM,0.344
same,relative viability,LCLC-97TM1; first compound 0.1265 µM,0.285
same,relative viability,LCLC-97TM1; first compound 0.4 µM,0.19
same,relative viability,LCLC-97TM1; first compound 1.265 µM,0.118
same,relative viability,LCLC-97TM1; first compound 4 µM,0.117
